The values below come from ChEMBL document CHEMBL1201862, “PubChem BioAssay data set” (2004).

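These data come from cells grown in 96-well plates and exposed to compound for 48 hours at five concentrations. GI50: concentration for 50% inhibition of growth.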 Activity calls are given as the source filed them. Rule as the data show it: active = GI50 up to about 1.1 µM and inactive = higher. Where a SMILES comes first, the peptide text is derived from it. [ ]: non-standard residue; d: D form. The star is where a group is joined. Phe(4-NO2) = N[CH](Cc1ccc([N+](=O)[O-])cc1)C(=O)O; Boc = CC(C)(C)OC(=O)*; OBn = c1ccc(CO*)cc1

Test systems include CCRF-CEM; MDA-N; 786-0; CAKI-1; SK-MEL-2; SK-MEL-5; OVCAR-3; M14; HT-29; SN12C; LOX IMVI; SR; MCF7; ACHN; PC-3; OVCAR-8; OVCAR-5; SF-295; SF-539.
Assay in all cases: DTP human tumour cell line panel, 48 h

As to `Cc1occc1C(=S)Nc1ccc(Cl)c(C(=O)OC(C)C2CC2)c1` (configuration not stated), the GI50 in the test with CCRF-CEM was 50.1 µM (inactive); with MDA-N it was 18.6 µM (inactive); in the test with 786-0 it was 19.3 µM (inactive); in the test with CAKI-1 it was 18.7 µM (inactive); in the test on SK-MEL-2, 18.3 µM (inactive); in the test on SK-MEL-5, 15.3 µM (inactive). For the same compound, the GI50 in the test with OVCAR-3 is 16.6 µM (inactive); in the test with M14 it was 24.9 µM (inactive); with HT-29 it was 20.6 µM (inactive); in the test with SN12C, 18 µM (inactive); in the test with LOX IMVI, 19.4 µM (inactive); with SR it was 18.3 µM (inactive). Moreover, the GI50 with MCF7 was 26 µM (inactive); in the test with ACHN, 17.3 µM (inactive); with PC-3, 18.9 µM (inactive); in the test with OVCAR-8 it was 18.3 µM (inactive); with OVCAR-5 it was 23.4 µM (inactive); in the test with SF-295, 17.2 µM (inactive). In the test on SF-539, the GI50 was 22.3 µM (inactive).

As for `COc1ccccc1Nc1nc(N)nc(N)c1N`, the GI50 in the test on CCRF-CEM is 27 µM (inactive); with MDA-N, 17.6 µM (inactive); in the test on 786-0, 33.4 µM (inactive); in the test with CAKI-1 it was 58.7 µM (inactive); in the test with SK-MEL-2 it was > 100 µM (inactive); with SK-MEL-5, 54.1 µM (inactive). Further, the GI50 is 43.9 µM (inactive) with OVCAR-3; > 100 µM (inactive) with M14; 45.4 µM (inactive) with HT-29; 17.5 µM (inactive) in the test with SN12C; 20.8 µM (inactive) in the test on LOX IMVI; 23.7 µM (inactive) with SR. Moreover, the GI50 is 29.2 µM (inactive) with MCF7; > 100 µM (inactive) in the test with ACHN; 90.8 µM (inactive) in the test with PC-3; > 100 µM (inactive) with OVCAR-8; > 100 µM (inactive) in the test on OVCAR-5; 28.6 µM (inactive) with SF-295. Also, the GI50 in the test with SF-539 was 50.6 µM (inactive).

`CN(C)CCCSc1nc2c(c(=N)n1-c1ccccc1)c(=S)n(-c1ccccc1)c(=S)n2-c1ccccc1`: the 50% growth inhibitory concentration (GI50) with CCRF-CEM is 0.43 µM (active); in the test with MDA-N it was 1.71 µM (inactive); in the test on 786-0 it was 1.27 µM (inactive); with CAKI-1, 1.77 µM (inactive); in the test with SK-MEL-2 it was 2.12 µM (inactive); in the test on SK-MEL-5, 1.91 µM (inactive). In addition, the GI50 in the test on OVCAR-3 was 1.75 µM (inactive); in the test with M14 it was 1.78 µM (inactive); in the test on HT-29, 2.17 µM (inactive); in the test with SN12C, 1.74 µM (inactive); in the test on LOX IMVI, 1.29 µM (inactive); in the test with SR, 0.237 µM (active). For the same compound, the GI50 in the test on MCF7 was 0.383 µM (active); in the test with ACHN, 1.82 µM (inactive); in the test on PC-3, 1.75 µM (inactive); in the test with OVCAR-8, 1.77 µM (inactive); in the test on OVCAR-5 it was 11.3 µM (inactive); in the test on SF-295, 5.21 µM (inactive). In addition, the GI50 with SF-539 was 2.52 µM (inactive).

Regarding `COC(=O)CCC(NC(=O)OC(C)(C)C)C(=O)NC(Cc1ccc([N+](=O)[O-])cc1)C(=O)NCC(=O)OCc1ccccc1` (configuration not stated) (Boc-Glu(OMe)-[Phe(4-NO2)]-Gly-OBn; configuration not given here), the GI50 in the test with CCRF-CEM is 99.3 µM (inactive); with MDA-N, > 100 µM (inactive); in the test with 786-0, 45.5 µM (inactive); with CAKI-1 it was > 65.6 µM (inactive); in the test on SK-MEL-2 it was > 77.1 µM (inactive); in the test on SK-MEL-5, > 100 µM (inactive). In addition, the GI50 in the test on OVCAR-3 was > 100 µM (inactive); with M14, > 100 µM (inactive); in the test with HT-29, > 100 µM (inactive); in the test with SN12C, > 100 µM (inactive); in the test on LOX IMVI it was > 48.2 µM (inactive); in the test with SR, > 53.8 µM (inactive). Also, the GI50 is > 100 µM (inactive) in the test with MCF7; > 100 µM (inactive) in the test on ACHN; > 100 µM (inactive) in the test with PC-3; 46.7 µM (inactive) with OVCAR-8; > 100 µM (inactive) in the test with OVCAR-5; > 48.5 µM (inactive) in the test with SF-295. Also, in the test with SF-539, the GI50 is 28.4 µM (inactive).

For the compound `OC1CCC(COC(c2ccccc2)(c2ccccc2)c2ccccc2)O1` (configuration not stated), the GI50 in the test on CCRF-CEM was 14.2 µM (inactive); in the test with MDA-N, 18.7 µM (inactive); with 786-0, 19.4 µM (inactive); in the test on CAKI-1 it was 17.1 µM (inactive); with SK-MEL-2 it was 18.1 µM (inactive); in the test with SK-MEL-5, 16.9 µM (inactive). The GI50 with OVCAR-3 was 18.4 µM (inactive); in the test on M14 it was 18.7 µM (inactive); in the test with HT-29, 18.3 µM (inactive); in the test with SN12C it was 19.2 µM (inactive); with LOX IMVI it was 15.4 µM (inactive); with SR it was > 10 µM (inactive). Further, the GI50 was 17.1 µM (inactive) in the test on MCF7; 17 µM (inactive) in the test on ACHN; 10.7 µM (inactive) in the test on PC-3; 17.9 µM (inactive) with OVCAR-8; 22.9 µM (inactive) with OVCAR-5; 15.9 µM (inactive) in the test with SF-295. In addition, in the test on SF-539, the GI50 is 17.3 µM (inactive).

For `COc1ccc(O[C@H](CO)C[C@@H]2COC(C)(C)O2)cc1`, the GI50 with CCRF-CEM, with MDA-N, in the test on 786-0, in the test on CAKI-1, with SK-MEL-2 and in the test with SK-MEL-5 was > 100 µM (inactive) each time. Further, the GI50 in the test on OVCAR-3, in the test on M14, with HT-29, in the test on SN12C, in the test on LOX IMVI and with SR was > 100 µM (inactive) throughout. The GI50 with MCF7, with ACHN, in the test on PC-3, in the test with OVCAR-8, with OVCAR-5 and in the test with SF-295 was > 100 µM (inactive) in each case. In addition, the GI50 with SF-539 was > 100 µM (inactive).

As to `COC(=O)C[C@H](CCSC)NC(=O)C[C@H](CCSC)NC(=O)C[C@H](CCSC)NC(=O)OC(C)(C)C`, the GI50 in the test on CCRF-CEM was 67.1 µM (inactive); in the test on MDA-N it was 48.3 µM (inactive); in the test with 786-0, 33.6 µM (inactive); in the test on CAKI-1 it was > 100 µM (inactive); in the test on SK-MEL-2, 24.2 µM (inactive); with SK-MEL-5, 56.4 µM (inactive). In addition, the GI50 in the test on OVCAR-3 was 22.5 µM (inactive); with M14, 57.5 µM (inactive); with HT-29, > 100 µM (inactive); in the test on SN12C it was 32.8 µM (inactive); in the test on LOX IMVI, > 100 µM (inactive); with SR it was 39.6 µM (inactive). For the same compound, the GI50 in the test with MCF7 is 38.1 µM (inactive); in the test with ACHN it was 36.9 µM (inactive); in the test with PC-3, > 100 µM (inactive); in the test with OVCAR-8 it was 28.7 µM (inactive); with OVCAR-5, > 100 µM (inactive); in the test on SF-295, 21.8 µM (inactive). Moreover, the GI50 with SF-539 is 17.5 µM (inactive).

Turning to `Cn1c(=O)n2c(=O)n(C)c(=O)n2c1=O`, the GI50 with CCRF-CEM, with MDA-N, in the test with 786-0, with CAKI-1, in the test with SK-MEL-2 and with SK-MEL-5 was > 100 µM (inactive) in each case. Also, the GI50 in the test with OVCAR-3, in the test with M14, with HT-29, in the test on SN12C, with LOX IMVI and with SR was > 100 µM (inactive) each time. Besides, the GI50 in the test on MCF7, in the test on PC-3, in the test on OVCAR-8, with OVCAR-5 and in the test on SF-539 was > 100 µM (inactive) throughout.

Take `O=C(NCCN1CCCC1)c1cn2c(ccc3sc4ccccc4c(=O)c32)n1`: the GI50 in the test with CCRF-CEM is 1.22 µM (inactive); in the test with MDA-N, 16.2 µM (inactive); in the test on 786-0 it was 1.41 µM (inactive); in the test on CAKI-1, 11.4 µM (inactive); with SK-MEL-2, 19.2 µM (inactive); with SK-MEL-5, 10.3 µM (inactive). The GI50 in the test with OVCAR-3 is 14.7 µM (inactive); with M14 it was 15.6 µM (inactive); in the test with HT-29 it was 3.18 µM (inactive); with SN12C it was 10.9 µM (inactive); with LOX IMVI, 1.46 µM (inactive); in the test on SR, 1.17 µM (inactive). The GI50 was 2.77 µM (inactive) in the test on MCF7; 5.13 µM (inactive) in the test with ACHN; 13.8 µM (inactive) in the test on PC-3; 4.95 µM (inactive) in the test on OVCAR-8; 11.9 µM (inactive) in the test on OVCAR-5; 13.8 µM (inactive) in the test on SF-295. Besides, the GI50 in the test with SF-539 was 14.9 µM (inactive).

On to `COc1cc(C2SCC(=O)N2c2ccc(Cl)c(Cl)c2)cc(OC)c1OC` (configuration not stated), for which the GI50 was 14.8 µM (inactive) in the test with CCRF-CEM; 13 µM (inactive) in the test on MDA-N; > 55.6 µM (inactive) with 786-0; 27.5 µM (inactive) in the test with CAKI-1; 30.2 µM (inactive) with SK-MEL-2; 21.7 µM (inactive) with SK-MEL-5. Besides, the GI50 is 34.1 µM (inactive) in the test on OVCAR-3; 11.2 µM (inactive) in the test on M14; 23.1 µM (inactive) with HT-29; > 54.5 µM (inactive) with SN12C; 17.7 µM (inactive) in the test with LOX IMVI; 9.75 µM (inactive) in the test with SR. Also, the GI50 is 38.2 µM (inactive) in the test with MCF7; 54.2 µM (inactive) with PC-3; 60.5 µM (inactive) in the test on OVCAR-8; 7.5 µM (inactive) with OVCAR-5; 29.8 µM (inactive) in the test with SF-295; 70.5 µM (inactive) with SF-539.
